The nature of data set [1]: Dissolution of substrate in the reagents of Example 3. In kind it is physicochemical. The conditions noted are these: reagents of Example 3 without their substrates, 50 mM Good Buffer pH 7.0; substrate 2 mM in Example 3. An excerpt: An attempt was made to use the substrates listed below instead of the substrates in Example 3, but the former substrates were not dissolved in the reagents in Example 3 (excluding substrates in Example 3).

Data set [2] deals with α-amylase. Kind of data set: Change in absorbance per minute at 400 nm with sample serum (indication of amylase activity). Conditions: 3 ml reagent added to sample serum, 5-6 minutes at 37° C. In kind it is biochemical. Here is the method:
(§1) With this reagent, variation in absorbance was determined in a similar manner to Example 2. A 3 ml quantity of the reagent was added to […] of sample serum and allowed to stand for 5-6 minutes at 37° C. and thereafter, the variation in absorbance at 400 nm was determined and the change in absorbance per one minute which is an indication of amylase activity was calculated The variation in blank value of the reagent with time and the change in absorbance per minute are shown in Table 2 below.

Data set [3] deals with α-Glucosidase, β-Glucosidase. Put plainly: Variation in blank value of reagent with time (absorbance at 400 nm), reagent with α-glucosidase and β-glucosidase. In kind it is biochemical. Conditions: substrate 2 mM. How it is done: Reagents having the following composition were prepared.
50 mM Good Buffer (pH 7.0)
Substrate (see Table 1) 2 mM
Immediately after the preparation of the reagents, after 10 minutes, 20 minutes and 30 minutes, the absorbance of each reagent at 400 nm was determined (3 ml of reagent sample; 37° C.).
The reagent having the following composition was prepared:
(§2) Substrate (see Table 2) 2 mM

Data set [4] concerns α-Glucosidase, β-Glucosidase, Glucoamylase. Put plainly: Variation in blank value of reagent with time (absorbance at 400 nm), reagent with α-glucosidase, β-glucosidase and glucoamylase. The format is biochemical. The conditions noted are these: Table 2, glucoamylase added (10 U/ml), substrate 2 mM; for Absorbance at 400 nm (blank value), on reaction initiation: pH 7.0, α-glucosidase 80 U/ml, β-glucosidase 10 U/ml; for Absorbance at 400 nm (blank value), after 10 min. / Absorbance at 400 nm (blank value), after 20 min. / Absorbance at 400 nm (blank value), after 30 min.: pH 7.0. Here is the method:
as §1
The reagent of the following composition was prepared:
as §2

Setting [5] is: Table 1, 50 mM Good Buffer pH 7.0, α-glucosidase 80 U/ml, β-glucosidase 10 U/ml, 37° C., immediately after preparation.
The mark [6] stands for this setting: Table 1, pH 7.0, α-glucosidase 80 U/ml, β-glucosidase 10 U/ml, 37° C.
Where [7] appears, read: Table 2, no glucoamylase, pH 7.0.

As to `O=[N+]([O-])c1ccc(O[C@@H]2O[C@H](CO)[C@@H](O[C@H]3O[C@H](CO)[C@@H](O[C@H]4O[C@H](CO)[C@@H](O[C@H]5O[C@H](CO)[C@@H](O[C@H]6O[C@@H]7COC(c8ccccc8)O[C@H]7[C@H](O)[C@H]6O)[C@H](O)[C@H]5O)[C@H](O)[C@H]4O)[C@H](O)[C@H]3O)[C@H](O)[C@H]2O)c(Cl)c1` (stereo partly drawn) [Benzylidene 2-chloro-4-nitrophenyl-β-maltopentaoside], in data set [1], the “Solubility of substrate in the reagents in Example 3” value (from here on “Solubility of substrate”) was “not dissolved”.

In the case of `CC(=O)CC1OC[C@H]2O[C@H](O[C@H]3[C@H](O)[C@@H](O)[C@@H](O[C@H]4[C@H](O)[C@@H](O)[C@@H](O[C@H]5[C@H](O)[C@@H](O)[C@@H](O[C@H]6[C@H](O)[C@@H](O)[C@H](Oc7ccc([N+](=O)[O-])cc7Cl)O[C@@H]6CO)O[C@@H]5CO)O[C@@H]4CO)O[C@@H]3CO)[C@H](O)[C@@H](O)[C@@H]2O1` (stereo partly drawn) [Example 2, 3-ketobutylidene 2-chloro-4-nitrophenyl-β-maltopentaoside], the Change in absorbance is 0.157 per minute in data set [2] (glucoamylase added (10 U/ml)) and 0.123 per minute in data set [2] (no glucoamylase). In addition, the “Absorbance at 400 nm (blank value), on reaction initiation” value (from here on “Absorbance … on reaction initiation”) is recorded as 0.049 in data set [3] (setting [5]); 0.050 in data set [3] (Table 2, no glucoamylase, pH 7.0, α-glucosidase 80 U/ml, β-glucosidase 10 U/ml); 0.051 in data set [4]. Further, the “Absorbance at 400 nm (blank value), after 10 min.” value (from here on “Absorbance … after 10 min.”) in data set [3] (setting [6]) was determined as 0.049; in data set [3] (setting [7]), 0.051; in data set [4], 0.051. Moreover, the “Absorbance at 400 nm (blank value), after 20 min.” value (“Absorbance … after 20 min.” for short) is listed as 0.049 in data set [3] (setting [6]), 0.051 in data set [3] (setting [7]) and 0.051 in data set [4]. Besides, the “Absorbance at 400 nm (blank value), after 30 min.” value (“Absorbance … after 30 min.” for short) is 0.050 in data set [3] (setting [6]), 0.051 in data set [3] (setting [7]) and 0.052 in data set [4].

Take `CC1(C)OC[C@H]2O[C@H](O[C@H]3[C@H](O)[C@@H](O)[C@@H](O[C@H]4[C@H](O)[C@@H](O)[C@@H](O[C@H]5[C@H](O)[C@@H](O)[C@@H](O[C@H]6[C@H](O)[C@@H](O)[C@H](Oc7ccc([N+](=O)[O-])cc7Cl)O[C@@H]6CO)O[C@@H]5CO)O[C@@H]4CO)O[C@@H]3CO)[C@H](O)[C@@H](O)[C@@H]2O1` [Isopropylidene 2-chloro-4-nitrophenyl-β-maltopentaoside]: the “Solubility of substrate” value in data set [1] was “not dissolved”.

As to `O=[N+]([O-])c1ccc(O[C@@H]2O[C@H](CO)[C@@H](O[C@H]3O[C@H](CO)[C@@H](O[C@H]4O[C@H](CO)[C@@H](O[C@H]5O[C@H](CO)[C@@H](O[C@H]6O[C@@H]7COCO[C@H]7[C@H](O)[C@H]6O)[C@H](O)[C@H]5O)[C@H](O)[C@H]4O)[C@H](O)[C@H]3O)[C@H](O)[C@H]2O)c(Cl)c1` [Methylidene 2-chloro-4-nitrophenyl-β-maltopentaoside], in data set [1], the “Solubility of substrate” value is on record as “not dissolved”.

As to `O=[N+]([O-])c1ccc(O[C@@H]2O[C@H](CO)[C@@H](O[C@H]3O[C@H](CO)[C@@H](O[C@H]4O[C@H](CO)[C@@H](O[C@H]5O[C@H](CO)[C@@H](O[C@H]6O[C@H](CO)[C@@H](O)[C@H](O)[C@H]6O)[C@H](O)[C@H]5O)[C@H](O)[C@H]4O)[C@H](O)[C@H]3O)[C@H](O)[C@H]2O)c(Cl)c1` [compound 1, 2-chloro-4-nitrophenyl-β-maltopentaoside, reference compound], the Change in absorbance in data set [2] (glucoamylase added (10 U/ml)) stood at 0.136 per minute. Moreover, the “Absorbance … on reaction initiation” value in data set [3] (setting [5]) turned out to be 0.251. In data set [3] (setting [6]), the “Absorbance … after 10 min.” value is on record as 0.273; the “Absorbance … after 20 min.” value is reported as 0.293; the “Absorbance … after 30 min.” value was determined as 0.323. Also, in data set [4], the “Absorbance … on reaction initiation” value is 0.132; the “Absorbance … after 10 min.” value was found to be 0.162; the “Absorbance … after 20 min.” value came to 0.192; the “Absorbance … after 30 min.” value was 0.223.

The values above are taken from patent publication US4987067A, “Maltooligosaccharide derivatives and reagents for determination of amylase activity” (Yoshitomi Pharmaceutical Industries, Ltd., priority 1987, dated 1991).
